The record followed here is patent US8389513B2, “2-amino-5,5-difluoro-5,6-dihydro-4H-[1,3]oxazin-4-yl)-phenyl]-amides” (Hoffmann-La Roche Inc., priority 2009, dated 2013).

For one test, the target named is T1, BACE2 (Rattus norvegicus, UniProt Q6IE75).
T1 construct: endogenous cellular BACE2 in the Ins1e rat cell line; endogenous in cells; host or cells: INS-TMEM27 (INS1e-derived rat cell line with TetOn-inducible full-length hTMEM27)
T1 sequence (Q6IE75 63-514): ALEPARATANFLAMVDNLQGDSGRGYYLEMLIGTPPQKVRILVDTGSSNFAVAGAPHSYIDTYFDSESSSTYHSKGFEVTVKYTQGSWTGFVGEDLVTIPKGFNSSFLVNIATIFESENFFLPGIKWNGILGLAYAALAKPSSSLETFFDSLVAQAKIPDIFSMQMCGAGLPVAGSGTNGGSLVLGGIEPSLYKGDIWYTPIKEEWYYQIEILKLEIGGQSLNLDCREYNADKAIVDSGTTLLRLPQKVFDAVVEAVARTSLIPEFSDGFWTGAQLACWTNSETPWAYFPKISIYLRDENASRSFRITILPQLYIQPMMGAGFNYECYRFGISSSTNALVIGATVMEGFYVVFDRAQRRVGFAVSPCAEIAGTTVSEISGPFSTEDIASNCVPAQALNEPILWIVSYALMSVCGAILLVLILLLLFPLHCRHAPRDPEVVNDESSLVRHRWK
Kind of test: Assay for BACE inhibition by measuring cellular TMEM27 cleavage. The format is cell-based. Particulars: INS-TMEM27 cells (INS1e-derived); shed TMEM27 by ELISA; read-out: BACE2 cell act. IC50. From the text:
Assay for BACE Inhibition by Measuring Cellular TMEM27 Cleavage:
The assay uses the principle of inhibition of human TMEM27 cleavage by endogenous cellular BACE2 in the Ins1e rat cell line and shedding from the cell surface into the culture medium, followed by detection in an ELISA assay. Inhibition of BACE2 prevents the cleavage and shedding in a dose-dependent manner.
The stable cell line “INS-TMEM27” represents an INS1e-derived cell line with inducible expression (using the TetOn system) of full-length hTMEM27 in a doxycycline-dependent manner. The cells are cultured throughout the experiment in RPMI1640+Glutamax (Invitrogen) Penicillin/Streptomycin, 10% Fetal bovine serum, […] pyruvate, […] beta-mercatptoethanol, 100 micrograms/ml G418 and 100 microgram/ml hygromycin and are grown inadherent culture at 37° C. in a standard CO2 cell culture incubator. INS-TMEM27 cells are seeded in 96-well plates. After 2 days in culture, BACE2 inhibitor is added in a range of concentrations as required by the assay and after a further two hours, doxycycline is added to a final concentration of 500 ng/ml. The cells are incubated for a further 46 hours and the supernatant harvested for detection of shed TMEM27.
An ELISA assay (using a pair of mouse anti-human-TMEM27 antibodies, raised against the extracellular domain of TMEM27) is used for detection of TMEM27 in the culture medium. An EC50 for BACE2 inhibition is calculated using the ELISA readout for each inhibitor concentration with standard curve-fitting software such as XLFit for the Excel spreadsheet program.
A general note: ELISA stands for enzyme-linked immunosorbent assay.

The next test addresses T2, BACE1 (Homo sapiens, UniProt P56817).
T2 construct: Human HEK293 cells which are stably transfected with a vector expressing a cDNA of the human APP wt gene (APP695); endogenous in cells; host or cells: HEK293 stably transfected with human APP695 wt
Kind of test: Cellular Aβ-lowering assay (Aβ40 ELISA). The format is cell-based. The note with it: HEK293 cells stably expressing human APP695; Aβ40 in culture supernatant; read-out: BACE1 cell act. Aβ40 IC50. The procedure:
Cellular Aβ-Lowering Assay:
Human HEK293 cells which are stably transfected with a vector expressing a cDNA of the human APP wt gene (APP695) were used to assess the potency of the compounds in a cellular assay. The cells were seeded in 96-well microtiter plates in cell culture medium (Iscove, plus 10% (v/v) fetal bovine serum, glutamine, penicillin/streptomycin) to about 80% confluence and the compounds were added at a 10× concentration in 1/10 volume of medium without FCS containing 8% DMSO (final concentration of DMSO was kept at 0.8% v/v). After 18-20 hrs incubation at 37° C. and 5% CO2 in a humidified incubator the culture supernatant was harvested for the determination of Aβ40 concentrations. […] Subsequently the wells of the microtiter plate were washed extensively with Tris-buffered saline containing 0.05% Tween 20 and the assay was developed with tetramethylbenzidine/H2O2 in citric acid buffer. After stopping the reaction with one volume 1 NH2SO4 the reaction was measured in an ELISA reader at 450 nm wavelength. The concentrations of Aβ in the culture supernatants were calculated from a standard curve obtained with known amounts of pure Aβ peptide.

T2 sequence (P56817 46-501): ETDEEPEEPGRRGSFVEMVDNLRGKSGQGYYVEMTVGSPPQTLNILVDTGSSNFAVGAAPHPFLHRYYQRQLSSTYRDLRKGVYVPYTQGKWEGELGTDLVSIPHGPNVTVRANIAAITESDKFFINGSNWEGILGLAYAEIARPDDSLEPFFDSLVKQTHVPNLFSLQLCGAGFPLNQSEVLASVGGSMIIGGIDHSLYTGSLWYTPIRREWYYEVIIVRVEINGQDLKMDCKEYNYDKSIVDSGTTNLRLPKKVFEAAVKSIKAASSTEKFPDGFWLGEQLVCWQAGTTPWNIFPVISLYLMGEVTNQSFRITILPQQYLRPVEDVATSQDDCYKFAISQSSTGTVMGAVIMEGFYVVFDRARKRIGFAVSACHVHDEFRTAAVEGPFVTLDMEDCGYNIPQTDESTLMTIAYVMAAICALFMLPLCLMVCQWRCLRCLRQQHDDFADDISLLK

The IC50 is the concentration needed to halve the response being measured. As to `C[C@]1(c2cc(NC(=O)c3ncc(Cl)nc3Cl)ccc2F)N=C(N)OCC1(F)F` [Example 48, 3,5-Dichloro-pyrazine-2-carboxylic acid [3-((R)-2-amino-5,5-difluoro-4-methyl-5,6-dihydro-4H-[1,3]oxazin-4-yl)-4-fluoro-phenyl]-amide], the half-maximal inhibitory concentration (IC50) at BACE2 was found to be 6740 nM; on BACE1 it was 1130 nM.

Turning to `Cc1nc(C(=O)Nc2ccc(F)c([C@@]3(C)N=C(N)OCC3(F)F)c2)co1` [Example 58, 2-Methyl-oxazole-4-carboxylic acid [3-((R)-2-amino-5,5-difluoro-4-methyl-5,6-dihydro-4H-[1,3]oxazin-4-yl)-4-fluoro-phenyl]-amide], the values for the IC50 at BACE2 and at BACE1 were 25 nM and 15 nM, respectively.

As to `C[C@]1(c2cc(NC(=O)c3ncc(Cl)cc3F)ccc2F)N=C(N)OCC1(F)F` [Example 15, 5-Chloro-3-fluoro-pyridine-2-carboxylic acid [3-((R)-2-amino-5,5-difluoro-4-methyl-5,6-dihydro-4H-[1,3]oxazin-4-yl)-4-fluoro-phenyl]-amide], the values for the IC50 at BACE2 and on BACE1 were 52 nM and 9 nM, respectively.

In the case of `CC1(C)OC(N)=N[C@](C)(c2cc(NC(=O)c3ncc(Cl)cc3F)ccc2F)C1(F)F` [Example 24, 5-Chloro-3-fluoro-pyridine-2-carboxylic acid [3-((R)-2-amino-5,5-difluoro-4,6,6-trimethyl-5,6-dihydro-4H-[1,3]oxazin-4-yl)-4-fluoro-phenyl]-amide], the IC50 was 70 nM on BACE2 and 12 nM at BACE1.

With `C[C@]1(c2cc(NC(=O)c3ccc(OCC(F)(F)F)cn3)ccc2F)N=C(N)OCC1(F)F` [Example 14, 5-(2,2,2-Trifluoro-ethoxy)-pyridine-2-carboxylic acid [3-((R)-2-amino-5,5-difluoro-4-methyl-5,6-dihydro-4H-[1,3]oxazin-4-yl)-4-fluoro-phenyl]-amide], the figures for the 50% inhibitory concentration (IC50) at BACE2 and on BACE1 were 19200 nM and 290 nM, respectively.

For the compound `C[C@]1(c2cc(NC(=O)c3ccc(OCC(F)(F)C(F)(F)F)cn3)ccc2F)N=C(N)OCC1(F)F` [Example 44, 5-(2,2,3,3,3-Pentafluoro-propoxy)-pyridine-2-carboxylic acid [3-((R)-2-amino-5,5-difluoro-4-methyl-5,6-dihydro-4H-[1,3]oxazin-4-yl)-4-fluoro-phenyl]-amide], the IC50 turned out to be 14500 nM at BACE2 and 290 nM on BACE1.

For the compound `C[C@]1(c2cc(NC(=O)c3ncc(C(F)(F)F)cn3)ccc2F)N=C(N)OCC1(F)F` [Example 16, 5-Trifluoromethyl-pyrimidine-2-carboxylic acid [3-((R)-2-amino-5,5-difluoro-4-methyl-5,6-dihydro-4H-[1,3]oxazin-4-yl)-4-fluoro-phenyl]-amide], the concentration for half-maximal inhibition (IC50) at BACE2 was found to be 1540 nM; at BACE1 it was 91 nM.

Take `C[C@]1(c2cc(NC(=O)c3ncc(F)cc3Cl)ccc2F)N=C(N)OCC1(F)F` [Example 7, 3-Chloro-5-fluoro-pyridine-2-carboxylic acid [3-((R)-2-amino-5,5-difluoro-4-methyl-5,6-dihydro-4H-[1,3]oxazin-4-yl)-4-fluoro-phenyl]-amide]: the values for the IC50 at BACE2 and at BACE1 were 49 nM and 41 nM, respectively.

As for `CC1(C)OC(N)=N[C@](C)(c2cc(NC(=O)c3ncc(Cl)cc3Cl)ccc2F)C1(F)F` [Example 23, 3,5-Dichloro-pyridine-2-carboxylic acid [3-((R)-2-amino-5,5-difluoro-4,6,6-trimethyl-5,6-dihydro-4H-[1,3]oxazin-4-yl)-4-fluoro-phenyl]-amide], the values for the IC50 at BACE2 and at BACE1 were 66 nM and 11 nM, respectively.

On to `CC1(C)OC(N)=N[C@](C)(c2cc(NC(=O)c3ccc(Cl)nn3)ccc2F)C1(F)F` [Example 37, 6-Chloro-pyridazine-3-carboxylic acid [3-((R)-2-amino-5,5-difluoro-4,6,6-trimethyl-5,6-dihydro-4H-[1,3]oxazin-4-yl)-4-fluoro-phenyl]-amide], for which the half-inhibitory concentration (IC50) at BACE2 is 50700 nM; at BACE1, 710 nM.

As to `C[C@]1(c2cc(NC(=O)C3(C(F)(F)F)CC3)ccc2F)N=C(N)OCC1(F)F` [Example 75, 1-Trifluoromethyl-cyclopropanecarboxylic acid [3-((R)-2-amino-5,5-difluoro-4-methyl-5,6-dihydro-4H-[1,3]oxazin-4-yl)-4-fluoro-phenyl]-amide], the results for the IC50 at BACE2 and at BACE1 were 1010 nM and 1490 nM, respectively.

`C[C@]1(c2cc(NC(=O)c3nn(CC(F)F)cc3Cl)ccc2F)N=C(N)OCC1(F)F` [Example 68, 4-Chloro-1-(2,2-difluoro-ethyl)-1H-pyrazole-3-carboxylic acid [3-((R)-2-amino-5,5-difluoro-4-methyl-5,6-dihydro-4H-[1,3]oxazin-4-yl)-4-fluoro-phenyl]-amide]: the results for the IC50 at BACE2 and at BACE1 were 230 nM and 927 nM, respectively.

With `C[C@]1(c2cc(NC(=O)c3cnc(Cl)cn3)ccc2F)N=C(N)OCC1(F)F` [Example 47, 5-Chloro-pyrazine-2-carboxylic acid [3-((R)-2-amino-5,5-difluoro-4-methyl-5,6-dihydro-4H-[1,3]oxazin-4-yl)-4-fluoro-phenyl]-amide], the IC50 was found to be 34900 nM on BACE2 and 520 nM at BACE1.

In the case of `C[C@]1(c2cc(NC(=O)c3ccc(OCF)cn3)ccc2F)N=C(N)OCC1(F)F` [Example 42, 5-Fluoromethoxy-pyridine-2-carboxylic acid [3-((R)-2-amino-5,5-difluoro-4-methyl-5,6-dihydro-4H-[1,3]oxazin-4-yl)-4-fluoro-phenyl]-amide], the half-inhibitory concentration (IC50) on BACE2 was found to be 300 nM; on BACE1, 29 nM.

In the case of `C[C@]1(c2cc(NC(=O)c3ncc(F)cc3F)ccc2F)N=C(N)OCC1(F)F` [Example 4, 3,5-Difluoro-pyridine-2-carboxylic acid [3-((R)-2-amino-5,5-difluoro-4-methyl-5,6-dihydro-4H-[1,3]oxazin-4-yl)-4-fluoro-phenyl]-amide], the IC50 at BACE2 amounted to 26 nM; at BACE1, 31 nM.

Consider `CC1(C)OC(N)=N[C@](C)(c2cc(NC(=O)c3ccc(OCF)cn3)ccc2F)C1(F)F` [Example 26, 5-Fluoromethoxy-pyridine-2-carboxylic acid [3-((R)-2-amino-5,5-difluoro-4,6,6-trimethyl-5,6-dihydro-4H-[1,3]oxazin-4-yl)-4-fluoro-phenyl]-amide], for which the IC50 on BACE2 came out at 761 nM; at BACE1, 30 nM.

With `Cn1ccc(C(=O)Nc2ccc(F)c([C@@]3(C)N=C(N)OCC3(F)F)c2)n1` [Example 63, 1-Methyl-1H-pyrazole-3-carboxylic acid [3-((R)-2-amino-5,5-difluoro-4-methyl-5,6-dihydro-4H-[1,3]oxazin-4-yl)-4-fluoro-phenyl]-amide], the values for the concentration for half-maximal inhibition (IC50) at BACE2 and on BACE1 were 113 nM and 110 nM, respectively.

`C[C@]1(c2cc(NC(=O)C3CC3(F)F)ccc2F)N=C(N)OCC1(F)F` (mixture of isomers) [Example 74, (RS)-2,2-Difluoro-cyclopropanecarboxylic acid [3-((R)-2-amino-5,5-difluoro-4-methyl-5,6-dihydro-4H-[1,3]oxazin-4-yl)-4-fluoro-phenyl]-amide]: the half-inhibitory concentration (IC50) at BACE2 stood at 590 nM; at BACE1 it was 510 nM.
